Measured values: PubChem BioAssay (NCI)
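At the GI50, growth is halved. At the TGI there is no net growth.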

Assays:
Assay in all cases: NCI anticancer screen, dose series, 384-well format
BT-549 breast = test system: BT-549 breast
CCRF-CEM leukemia = test system: CCRF-CEM leukemia
COLO 205 colon = test system: COLO 205 colon
DU-145 prostate = test system: DU-145 prostate
HCC-2998 colon = test system: HCC-2998 colon
HOP-92 NSCLC = test system: HOP-92 NSCLC
HT29 colon = test system: HT29 colon
K-562 leukemia = test system: K-562 leukemia
NCI-H23 lung = test system: NCI-H23 lung
OVCAR-4 ovarian = test system: OVCAR-4 ovarian
SF-268 CNS = test system: SF-268 CNS
SK-MEL-2 melanoma = test system: SK-MEL-2 melanoma
SK-MEL-28 melanoma = test system: SK-MEL-28 melanoma

## COc1cc2c(Nc3cc(Cl)c(OC)c(Cl)c3)c(C#N)cnc2cc1OCCCN1CCN(C)CC1
BT-549 breast
  GI50: 785 nM
  TGI: 2080 nM
CCRF-CEM leukemia
  GI50: 239 nM
  TGI: 486 nM
COLO 205 colon
  GI50: 765 nM
  TGI: 2050 nM
DU-145 prostate
  GI50: 843 nM
  TGI: 2290 nM
HCC-2998 colon
  GI50: 1060 nM
  TGI: 2260 nM
HOP-92 NSCLC
  GI50: 465 nM
  TGI: 1490 nM
HT29 colon
  GI50: 1630 nM
  TGI: 4360 nM
K-562 leukemia
  GI50: 166 nM
  TGI: 330 nM
NCI-H23 lung
  GI50: 401 nM
  TGI: 1480 nM
OVCAR-4 ovarian
  GI50: 808 nM
  TGI: 2170 nM
SF-268 CNS
  GI50: 604 nM
  TGI: 2060 nM
SK-MEL-2 melanoma
  GI50: 456 nM
  TGI: 1350 nM
SK-MEL-28 melanoma
  GI50: 1440 nM
  TGI: 2800 nM
